The results in this text go back to patent EP0100983A1, “Steroid compounds with choleretic activity, a process for their preparation, and therapeutic compounds which contain them as active principle” (PROTER S.p.A., priority 1982, dated 1984).

SMILES strings stand for the structures. Where a name gives a salt, the structure may show the parent alone.

The subject of series [1] is male albino rats of Wistar stock. Nature of the series: Choleretic activity in bile-duct (choledocus) cannulated rats, method of D'Armour and coll.: bile flow (test a) and bile dry residue (test b). It counts as in vivo. The conditions noted are these: rat. An excerpt: By way of example, details are given of the activity of 3α,7β-dihydroxy-6/3-cholan-24-oyl acetic acid (A) and of its trimebutine salt (B) compared with ursodeoxycholic acid (C), using the method of D'Armour and coll. (J. Pharmacol. Exp. Theor. 133, 400 (1961)).
This method consists essentially of cannulating the choledocus of the treated animals and collecting the bile before and after treatment with the drugs.
24 male albino rats of Wistar stock were used having an average weight of 400 g and divided into 4 batches of 6 animals each.
In the method used, after the surgical cannulation, the bile was allowed to flow out for about 30-45 minutes in order to regulate the flow, after which the basic bile was collected for 60 minutes.
After this time, the drug was administered into the subpyloric duodenal tract at a dose of 0.5 mM/kg, and the bile was collected in suitable graduated test tubes, the samples of each animal being split into periods of exactly 60 minutes, for a time of 3 hours after treatment. The following were then determined for each animal: • a) the quantity of bile which had flown out after each hour, and • b) the dry residue obtained after drying each sample under vacuum.
The tested compounds were solubilised with stoichiometric quantities of M NaOH, to obtain solutions or suspensions at pH 10.
Physiological solution (S.F.) adjusted to pH 10 by M NaOH was used for the control group.
The data obtained in the described experiments by administering equimolar doses of the products A and B and of the comparison drug C are shown on the accompanying graphs.

The test system of a further series is Wistar rats. Nature of the series: Acute toxicity by oral administration in the rat. In kind it is in vivo. The protocol: Acute toxicity was also tested by oral administration of the acid A and the salt B in the rat in comparison with ursodeoxycholic acid. 60 Wistar rats of the two sexes were used having an average weight of 200 g, divided randomly into three batches of 10 males and 10 females and treated orally by gastric probe with the following products: • batch 1: ursodeoxycholic acid (C) - 15% suspension in a 10% solution of gum arabic; […] equivalent to 3 g/kg of product; • batch 2: product (A) - 15% suspension in a 10% solution of gum arabic: 20 ml/kg equivalent to 3 g/kg of product; • batch 3: product (B) - 15% suspension in a 10% solution of gum arabic: 20 ml/kg equivalent to 3 g/kg of product.
The animals, kept under observation for two weeks, registered no case of death or other toxicity symptom.

A further series relates to guinea pig ileum. As to the kind of experiment: In vitro antispastic activity on the guinea pig ileum against acetylcholine bromide. The conditions noted are these: relative to trimebutine hydrochloride. An excerpt: Compound B was also used in "in vibro" antispastic activity tests on the guinea pig ileum, using acetylcholine bromide as […] in canparison with trimebutine hydrochloride.

As to `CC(CCC(=O)OCC(=O)O)C1CCC2C3C(O)CC4CC(O)CCC4(C)C3CCC12C` (stereo not drawn) [A, 3α,7β-dihydroxy-6β-cholan-24-oyl acetic acid], in series [1] (0.5 mM/kg into the subpyloric duodenal tract, compared with ursodeoxycholic acid (C) at equal dose, Figure 1), the “maximum intensity action on the bile flow” value is given as “practically equivalent to that of the comparison drug”. Moreover, the “activity on the bile flow after 1 hour” value in series [1] (0.5 mM/kg intraduodenal, 1 hour after treatment, relative to comparison drug C, Figure 1) is listed as “slightly less”. In addition, the “activity on the bile flow after 2 hours” value in series [1] (0.5 mM/kg intraduodenal, 2 hours after treatment, relative to comparison drug C, Figure 1) was “greater”. Moreover, in series [1] (0.5 mM/kg intraduodenal, compared with ursodeoxycholic acid, Figure 2), the “dry residual content of the bile (indicative of the bile salt content), maximum values” is “practically equal to that obtained after treatment with ursodeoxycholic acid”. The “tolerability when administered orally in a single dose” value in the series on Wistar rats (single oral dose 3 g/kg) was “very well tolerated”.

`CC(CCC(=O)OCC(=O)O)C1CCC2C3C(O)CC4CC(O)CCC4(C)C3CCC12C` (stereo not drawn) [Compound B, 2-dimethylamino-2-phenylbutyl 3,4,5-trimethoxybenzoate salt of 3α ,7β-dihydroxy-6β-cholan-24-oyl acetic acid]: the “activity on the bile flow after 3 hours” value in series [1] (0.5 mM/kg intraduodenal, 3 hours after treatment, Figure 1) is reported as “high”. The antispastic activity result with guinea pig ileum is listed as “approximately double that of trimebutine”. Besides, in the series with Wistar rats (oral), the “toxicity (concluding statement)” value is recorded as “absolute absence of toxicity”.

For the molecule `C[C@H](CCC(=O)O)[C@H]1CC[C@H]2[C@@H]3[C@@H](O)C[C@@H]4C[C@H](O)CC[C@]4(C)[C@H]3CC[C@]12C` [ursodeoxycholic acid, 3α ,7β-dihydroxy-6β-cholan-24-oic acid, reference compound], the “duration of the action” value in series [1] (0.5 mM/kg intraduodenal, bile dry residue test (Figure 2)) stood at 1 h.
